Laboratory results: EP0958819A1, “REMEDIES/PREVENTIVES FOR ABNORMAL MOTIONS ACCOMPANYING DISORDERS IN EXTRAPYRAMIDAL SYSTEM” (Asahi Kasei Kogyo Kabushiki Kaisha, priority 1996, dated 1998)
Structures can show the parent of a compound that is named as a salt. Marks after values point to notes of the source that are not given here.

Key:
[1] = system: risperidone-induced catalepsy; assay: Therapeutic effect against catalepsy model, risperidone-induced; format: in vivo, Wistar rats; conditions: 1 mg/kg p.o. given 75 minutes after risperidone 20 mg/kg i.p. to rats showing catalepsy; measured 105 minutes after compound; 5 to 6 rats
Method: (§1) Therapeutic effects of the compound of the present invention on haloperidol or risperidone induced catalepsy were examined using Wistar rats, male (Charles River Inc., Canada).
After further 15 minutes, the compound of the present invention or distilled water was administered orally. Therapeutic effect of the present compound against risperidone induced catalepsy was measured after 105 minutes of administration of the compound of the present invention.
(§2) Catalepsy was observed by hanging rats in their forepaws on the iron bar, diameter 2 mm, set on the position of 12 cm high, and we measured the duration of catalepsy. Measurements were conducted maximum for 180 seconds. Experiments were conducted in a group of 10 rats for haloperidol-induced catalepsy test and a group of 5 to 6 rats for risperidone induced catalepsy test. The mean duration of catalepsy in distilled water (vehicle of the compound in present invention)-administered group was defined as 100 %. Suppressive rate was indicated as percent of the shortening on the duration of catalepsy in the compound-administered group comparing with the mean of that in distilled water administered group.

[2] = system: haloperidol-induced catalepsy; assay: Therapeutic effect against catalepsy model, haloperidol-induced; format: in vivo, Wistar rats; conditions: 1 mg/kg p.o. given 45 minutes after haloperidol 2 mg/kg i.p. to rats showing catalepsy; measured 75 minutes after compound; 10 rats
Method: as §1
After further 15 minutes, the compound of the present invention or distilled water was administered orally. Therapeutic effect of the present compound against haloperidol induced catalepsy was measured after 75 minutes of administration of the compound of the present invention.
as §2

[3] = system: risperidone-induced catalepsy; assay: Preventive effect for catalepsy model, risperidone-induced; format: in vivo, Wistar rats; conditions: 1 mg/kg p.o. 30 minutes before risperidone 20 mg/kg i.p.; catalepsy observed 1 hour after risperidone; shortening of catalepsy duration vs distilled water group; 5 rats
Method: (§3) When a drug having dopamine receptor blocking activity is administered in rats, catalepsy induced. Catalepsy means a symptom of rats, which can not recovered by own intention, when rats are enforced unnatural posture, and it reflects abnormal movements consisting of mainly tremor, muscle rigidity and hypokinesia. (Hornykiewicz, O. Br. Med. Bull., 29, 172 - 178, 1973). […] (Schmidt, W.J. and Bubser, M., Pharmacol. Biochem. Behavior., 32, 621 - 623, 1988).
(§4) The compound A hydrochloride, 1mg/kg, was administered orally into Wistar rats, male (Japan Charles River Inc.). After 30 minutes, haloperidol (Sigma Corp., U.S.A.), 2mg/kg, or risperidone, which was extracted from Risperdal (trade name, Janssen Corp.,UK) according to the method hereinbelow explained, 20 mg/kg were administered intraperitoneally. Catalepsy after 1 hour of administration of haloperidol or risperidone was observed. Catalepsy was observed by hanging rats in their forepaws on the iron bar, diameter 2 mm, set on the position of 12 cm high, and we measured the time maintaining this posture. Measurements were conducted maximum for 180 seconds. Experiments were conducted in a group of 10 rats for haloperidol induced catalepsy test and a group of 5 rats for risperidone induced catalepsy test. The mean duration of catalepsy in distilled water (vehicle of the compound in present invention)-administered group was defined as 100 %. […]

red nucleus = assay: Effect on the firing rate in the red nucleus (electrophysiology, anesthetized rats); format: in vivo, Wistar rats; conditions: firing rate before administration = 100 %
Description: The red nucleus belongs extrapyramidal system and have an important role for regulating motor function. Destruction of the red nucleus in rats was reported to enhance the catalepsy. (Kolasa. K. et al., Pharmacol. Biochem. Behav.,51, 29 - 35, 1995). As shown in Example 4 dystonia model, unilateral infusion of haloperidol into red nucleus of rats results to appear dystonia. As shown like this, the hypofunction of red nucleus have a close relation with the expression of abnormal movements accompanying disorders of extrapyramidal system. Namely, hypofunction of red nucleus is considered to lead to the abnormal movements accompanying disorder of extrapyramidal system. In this experiment, effect of the compound of the present invention on the haloperidol-induced decrease of firing rate in red nucleus was examined. […]
Electric signals from the glass electrode were amplified with a micro electrode amplifier (MEZ-8301, Nihon Koden Co., Japan), filtered band path of 3 kHz - 50 Hz and humfilter and monitored on a oscilloscope (VC-11, Nihon Koden Co., Japan). […] Number of firing/10 seconds (firing rate) was calculated using pulse counter (MET-1100, Nihon Koden Co., Japan) and recorded by computer (Maclab ver. 3.5. Macintosh) with time dependent manner. […]

[4] = system: haloperidol-induced catalepsy; assay: Preventive effect for catalepsy model, haloperidol-induced; format: in vivo, Wistar rats; conditions: 1 mg/kg p.o. 30 minutes before haloperidol 2 mg/kg i.p.; catalepsy observed 1 hour after haloperidol; shortening of catalepsy duration vs distilled water group; 10 rats
Method: as §3, §4

dystonia model = assay: Inhibitory effect against dystonia model (haloperidol infused into red nucleus); format: in vivo, Wistar rats; conditions: combined infusion of haloperidol 3 nmol and compound 0.03 nmol into red nucleus; maximum torsional angle, mean ± S.D., 12 rats; control (haloperidol 3 nmol) 24.1 ± 1.7; p<0.01
Description: Unilateral infusion of haloperidol into red nucleus of rats results to appear continuous torsional movements of the head when the infusion side was laid down under side. This model reflects dystonia characterized by slow involuntary movement and hypermyotonia, which is one of abnormal movements accompanying disorders of extrapyramidal system. (Matsumoto, R.R. et al. Pharmacol. Biochem. Behavior.,36, 151 - 155, 1989). Evaluation of the compound of the present invention on dystonia model was performed by the following method.
Wistar rats (Japan Charles River Inc., 9 weeks old) were anesthetized by administration of pentobarbital (Somnopentil injection) 50 mg/kg intraperitoneally, and fixed the head by stereotaxic apparatus (David Coop Inc. U.S.A., David kopf). Scalp was incised and the bone of skull was exposed. Guide cannula 25G (Eicom Inc., Japan) was implanted 4.5 mm the above the left red nucleus and fixed with dental cement. After 2 - 3 days, injection cannula 27G (Eicom Inc., Japan) was inserted into the guide cannula without anesthetization. The tip of the cannula was introduced into the red nucleus below 4.5 mm of the guided cannula. […]
Rats were set into the observation cage made with transparent acrylic resin and recorded the front view image by video camera. […]

[5] = system: involuntary head-movements induced by IPDN; assay: Antagonistic action against IDPN model (head movements); format: in vivo, Sprague-Dawley rats; conditions: 1 mg/kg p.o.; IDPN 150 mg/kg i.p. for 6 days; counted during 30 minutes starting 30 minutes after dosing; mean ± standard error, 6 rats; control group 347 ± 14.4; p < 0.01
Method: When […] (IDPN, Tokyo Kasei Kogyo K.K., Japan) is administered in rats, rapid reciprocation of horizontal and vertical head movements is induced. […] This is very similar to the abnormal movements accompanying disorders of extrapyramidal system of human, which is classified into the group with major symptom of rapid involuntary movement and muscle hypotonia. (Schneider, J. S., Exp. Neurol., 84, 524 - 532, 1984).
IDPN (Tokyo Kasei Kogyo K.K., Japan) 150 mg/kg was administered to Sprague-Dawley rats (Charles River Inc., 7 weeks old) for 6 days intraperitoneally. Animals expressing horizontal and vertical head movements (at initiation of the experiment: 12 - 14 weeks old) within after 2 weeks of administration were used for dyskinesia model animals. The compound of the present invention (1 mg/kg) or distilled water (as a control group) was administered orally in rats. After 30 minutes, numbers of horizontal and vertical head movements neck during 30 minutes thereafter were counted. One reciprocation is counted as one motion.

**Q.** How did the “Suppressive rate (mg/kg, p.o.)” value [1] turn out when `CC1(C)C2CC[C@]1(C)CN(CCC1C3CC4CC(C3)CC1C4)C2` (stereo partly drawn) [Compound A hydrochloride, (1S)-3-[2-(2-adamantyl)ethyl]-1,8,8-trimethyl-3-azabicyclo [3.2.1]-octane] was run?
**A.** 48% (1)

**Q.** What about the “Suppressive rate (mg/kg, p.o.)” value [2] of the same compound?
**A.** 50% (1)

**Q.** And the “Suppressive rate (mg/kg, p.o.)” value [3]?
**A.** 53% (1)

**Q.** What about the “% Inhibitor of firing rate” value (red nucleus; compound 0.1 µg/kg i.v. 1 - 3 minutes before haloperidol 0.2 mg/kg i.v., P<0.05) of the same compound?
**A.** 24.7 %*

**Q.** And the “Suppressive rate (mg/kg, p.o.)” value [4]?
**A.** 77% (1)

**Q.** Which “torsional angle of head” value (dystonia model) does the source give for `CC1(C)C2CC[C@]1(C)CN(CCC1C3CC4CC(C3)CC1C4)C2` (stereo partly drawn) [Compound A, (1S)-3-[2-(2-adamantyl)ethyl]-1,8,8-trimethyl-3-azabicyclo [3.2.1]-octane] here?
**A.** 15.5 ± 1.3

**Q.** And the “Numbers of oscillation of neck” value [5]?
**A.** 224.5 ± 24.4

**Q.** For `O=C(CCCN1CCC(O)(c2ccc(Cl)cc2)CC1)c1ccc(F)cc1` [haloperidol, reference compound], which “% Inhibitor of firing rate” value (red nucleus; saline i.v. 1 - 3 minutes before haloperidol 0.2 mg/kg i.v.) is on record?
**A.** 60.1%
